# What was measured:
# Format in all cases: in vivo
# transplanted rice [1] = assay: Phytotoxicity, flooded paddy field, treatment at 3 leaf-stage (Test Example 2)
# Description: (§1) Carrier: 5 parts by weight of acetone
# (§2) Surfactant: one part by weight of benzyloxy polyglycol ether.
# (§3) Above described carrier and surfactant are mixed with one part by weight of the active compound ((a) ingredient and (b) ingredient) and the resulting preparation is then diluted with water to obtain given amount of the test drug (the formulation).
# (§4) In a greenhouse, seeds or tubers of Echinochloa, Cyperus difformis L., Scirpus juncoides Roxburgh, Monochoria vaginalis Presl, annual broad-leaved weeds (Lindernia procumbens Philcox, Lindernia dubia L. Penn., Rotala indica Koehne, Elatine triandra Schk, Ammannia multiflora Roxb.), Cyperus serotinus Rottboel and Sagittaria pygmaea Miq. were inoculated in a 500 cm^2 pot filled with paddy field soil. After 2 leaf-stage of rice were transplanted, water was poured to a depth of about 3 cm. At 3.0 leaf-stage of Echinochloa, a prescribed, diluted solution of the formulation of each active compound and each herbicidal compound in the table was separately or simultaneously applied to the surface of water. After the treatment, the water depth of 3 cm was maintained, and herbicidal effect was examined after 4 weeks. In the assessment of the herbicidal effect and the phytotoxicity, 100% refers to complete death and 0% refers to no effect or no phytotoxicity.
# Sagittaria pygmaea Miq. [2] = assay: Weed control, flooded paddy field, treatment at 3 leaf-stage (Test Example 2); conditions: after 4 weeks
# Description: as §1, §2, §3, §4
# [3] = system: Monochoria vaginalis Presl; assay: as above; conditions: after 4 weeks
# Description: as §1, §2, §3, §4
# [4] = system: Cyperus serotinus Rottboel; assay: as above; conditions: after 4 weeks
# Description: as §1, §2, §3, §4
# Echinochloa [5] = assay: as above; conditions: after 4 weeks
# Description: as §1, §2, §3, §4
# [6] = system: annual broad-leaved weeds; assay: as above; conditions: after 4 weeks
# Description: as §1, §2, §3, §4
# [7] = system: Scirpus juncoides Roxburgh; assay: as above; conditions: after 4 weeks
# Description: as §1, §2, §3, §4
# [8] = system: submerged direct sown paddy (Nipponbare); assay: Phytotoxicity, spray treatment at 1.5 to 3.0 leaf-stage (Test Example 3)
# Description: as §1, §2, §3
# (§5) In a greenhouse, seeds of rice (var.: Nipponbare and RD23) and weeds (Echinochloa oryzicola Vasing, Echinochloa cruss-galli, Leptochloa chinensis, Cyperus difformis L., Cyperus iria L., annual broad-leaved weeds (Monochoria vaginalis Presl, Lindernia procumbens Philcox, Lindernia dubia L. Penn., Rotala indica Koehne, Elatine triandra Schk, Ammannia multiflora Roxb. and the like)) were sown in a 500 cm^2 pot filled with paddy field soil and covered with soil. Water was added to the pot (a depth of 0 cm) to be a wet condition, and each test plant was grown in the greenhouse to 1.5 to 3.0 leaf-stage, after then a prescribed, diluted solution of the formulation of each active compound and each herbicidal compound in the table were separately or simultaneously sprayed over the pots with plants. At 3 days after the treatment, the water depth of 3 cm was maintained, and 4 weeks later, herbicidal effect was then examined. In the assessment of the herbicidal effect and the phytotoxicity, 100% refers to complete death and 0% refers to no effect or no phytotoxicity.
# [9] = system: submerged direct sown paddy (RD-23); assay: as above
# Description: as §1, §2, §3, §5
# Echinochloa cruss-galli = assay: Weed control by spray treatment at 1.5 to 3.0 leaf-stage (Test Example 3); conditions: spray at 1.5 to 3.0 leaf-stage, 4 weeks later
# Description: as §1, §2, §3, §5
# Cyperus difformis L. = assay: as above; conditions: spray at 1.5 to 3.0 leaf-stage, 4 weeks later
# Description: as §1, §2, §3, §5
# [10] = system: Echinochloa oryzicola Vasing; assay: as above; conditions: spray at 1.5 to 3.0 leaf-stage, 4 weeks later
# Description: as §1, §2, §3, §5
# [11] = system: Monochoria vaginalis Presl; assay: as above; conditions: spray at 1.5 to 3.0 leaf-stage, 4 weeks later
# Description: as §1, §2, §3, §5
# Cyperus iria L. = assay: as above; conditions: spray at 1.5 to 3.0 leaf-stage, 4 weeks later
# Description: as §1, §2, §3, §5
# [12] = system: annual broad-leaved weeds; assay: as above; conditions: spray at 1.5 to 3.0 leaf-stage, 4 weeks later
# Description: as §1, §2, §3, §5
# Leptochloa chinensis = assay: as above; conditions: spray at 1.5 to 3.0 leaf-stage, 4 weeks later
# Description: as §1, §2, §3, §5
# Sagittaria pygmaea Miq. [13] = assay: Weed control, flooded paddy field, treatment at 1 leaf-stage (Test Example 1); conditions: after 4 weeks
# Description: as §1, §2, §3
# as §4, with “Echinochloa,” for “Echinochloa, Cyperus difformis L.,”, “1.0” for “3.0”, “Echinochloa oryzicola Vasing,” for “Echinochloa,”
# [14] = system: Monochoria vaginalis Presl; assay: as above; conditions: after 4 weeks
# Description: as §1, §2, §3
# as §4, with “Echinochloa,” for “Echinochloa, Cyperus difformis L.,”, “1.0” for “3.0”, “Echinochloa oryzicola Vasing,” for “Echinochloa,”
# [15] = system: Cyperus serotinus Rottboel; assay: as above; conditions: after 4 weeks
# Description: as §1, §2, §3
# as §4, with “Echinochloa,” for “Echinochloa, Cyperus difformis L.,”, “1.0” for “3.0”, “Echinochloa oryzicola Vasing,” for “Echinochloa,”
# Echinochloa [16] = assay: as above; conditions: after 4 weeks
# Description: as §1, §2, §3
# as §4, with “Echinochloa,” for “Echinochloa, Cyperus difformis L.,”, “1.0” for “3.0”, “Echinochloa oryzicola Vasing,” for “Echinochloa,”
# [17] = system: annual broad-leaved weeds; assay: as above; conditions: after 4 weeks
# Description: as §1, §2, §3
# as §4, with “Echinochloa,” for “Echinochloa, Cyperus difformis L.,”, “1.0” for “3.0”, “Echinochloa oryzicola Vasing,” for “Echinochloa,”
# [18] = system: Scirpus juncoides Roxburgh; assay: as above; conditions: after 4 weeks
# Description: as §1, §2, §3
# as §4, with “Echinochloa,” for “Echinochloa, Cyperus difformis L.,”, “1.0” for “3.0”, “Echinochloa oryzicola Vasing,” for “Echinochloa,”
# transplanted rice [19] = assay: Phytotoxicity, flooded paddy field, treatment at 1 leaf-stage (Test Example 1)
# Description: as §1, §2, §3
# as §4, with “Echinochloa,” for “Echinochloa, Cyperus difformis L.,”, “1.0” for “3.0”, “Echinochloa oryzicola Vasing,” for “Echinochloa,”
smiles,measurement,setting,value
COc1nc(OC)nc(C(O)c2cccc(F)c2N(C)S(=O)(=O)C(F)F)n1 (stereo not drawn) [(a-3)],Phytotoxicity (%) ORYSP,"transplanted rice [1]; 30 g ai/ha, treatment at 3 leaf-stage, after 4 weeks",0%
same,Phytotoxicity (%) ORYSP,"transplanted rice [1]; 50 g ai/ha, treatment at 3 leaf-stage, after 4 weeks",0%
same,Herbicidal effect (%) SAGPY,Sagittaria pygmaea Miq. [2]; 30 g ai/ha,70%
same,Herbicidal effect (%) SAGPY,Sagittaria pygmaea Miq. [2]; 50 g ai/ha,70%
same,Herbicidal effect (%) MOOVP,[3]; 30 g ai/ha,10%
same,Herbicidal effect (%) MOOVP,[3]; 50 g ai/ha,13%
same,Herbicidal effect (%) CYPSEE,[4]; 30 g ai/ha,90%
same,Herbicidal effect (%) CYPSEE,[4]; 50 g ai/ha,90%
same,Herbicidal effect (%) ECHSS,Echinochloa [5]; 30 g ai/ha,90%
same,Herbicidal effect (%) ECHSS,Echinochloa [5]; 50 g ai/ha,90%
same,Herbicidal effect (%) BBBBB,[6]; 30 g ai/ha,3%
same,Herbicidal effect (%) BBBBB,[6]; 50 g ai/ha,8%
same,Herbicidal effect (%) SCPSS,[7]; 30 g ai/ha,60%
same,Herbicidal effect (%) SCPSS,[7]; 50 g ai/ha,60%
same,Phytotoxicity (%) ORYSW*^1,"[8]; 30 g ai/ha, spray at 1.5 to 3.0 leaf-stage, 4 weeks later",0%
same,Phytotoxicity (%) ORYSW*^1,"[8]; 50 g ai/ha, spray at 1.5 to 3.0 leaf-stage, 4 weeks later",10%
same,Phytotoxicity (%) ORYSW*^2,"[9]; 30 g ai/ha, spray at 1.5 to 3.0 leaf-stage, 4 weeks later, RD-23",0%
same,Phytotoxicity (%) ORYSW*^2,"[9]; 50 g ai/ha, spray at 1.5 to 3.0 leaf-stage, 4 weeks later, RD-23",0%
same,Herbicidal effect (%) ECHCG,Echinochloa cruss-galli; 30 g ai/ha,100%
same,Herbicidal effect (%) ECHCG,Echinochloa cruss-galli; 50 g ai/ha,100%
same,Herbicidal effect (%) CYPDI,Cyperus difformis L.; 30 g ai/ha,100%
same,Herbicidal effect (%) CYPDI,Cyperus difformis L.; 50 g ai/ha,100%
same,Herbicidal effect (%) ECHOR,[10]; 30 g ai/ha,100%
same,Herbicidal effect (%) ECHOR,[10]; 50 g ai/ha,100%
same,Herbicidal effect (%) MOOVP,[11]; 30 g ai/ha,65%
same,Herbicidal effect (%) MOOVP,[11]; 50 g ai/ha,85%
same,Herbicidal effect (%) CYPIR,Cyperus iria L.; 30 g ai/ha,100%
same,Herbicidal effect (%) CYPIR,Cyperus iria L.; 50 g ai/ha,100%
same,Herbicidal effect (%) BBBBB,[12]; 30 g ai/ha,65%
same,Herbicidal effect (%) BBBBB,[12]; 50 g ai/ha,85%
same,Herbicidal effect (%) LEFCH,Leptochloa chinensis; 30 g ai/ha,65%
same,Herbicidal effect (%) LEFCH,Leptochloa chinensis; 50 g ai/ha,80%
same,Herbicidal effect (%) SAGPY,Sagittaria pygmaea Miq. [13]; 30 g ai/ha,70%
same,Herbicidal effect (%) SAGPY,Sagittaria pygmaea Miq. [13]; 50 g ai/ha,90%
same,Herbicidal effect (%) MOOVP,[14]; 30 g ai/ha,20%
same,Herbicidal effect (%) MOOVP,[14]; 50 g ai/ha,40%
same,Herbicidal effect (%) CYPSEE,[15]; 30 g ai/ha,90%
same,Herbicidal effect (%) CYPSEE,[15]; 50 g ai/ha,90%
same,Herbicidal effect (%) ECHSS,Echinochloa [16]; 30 g ai/ha,90%
same,Herbicidal effect (%) ECHSS,Echinochloa [16]; 50 g ai/ha,90%
same,Herbicidal effect (%) BBBBB,[17]; 30 g ai/ha,20%
same,Herbicidal effect (%) BBBBB,[17]; 50 g ai/ha,35%
same,Herbicidal effect (%) SCPSS,[18]; 30 g ai/ha,60%
same,Herbicidal effect (%) SCPSS,[18]; 50 g ai/ha,60%
same,Phytotoxicity (%) ORYSP,"transplanted rice [19]; 30 g ai/ha, treatment at 1 leaf-stage, after 4 weeks",0%
same,Phytotoxicity (%) ORYSP,"transplanted rice [19]; 50 g ai/ha, treatment at 1 leaf-stage, after 4 weeks",0%
"CCOc1ccccc1OS(=O)(=O)NC(=O)Nc1nc(OC)cc(OC)n1 [(b-5), ethoxysulfuron]",Phytotoxicity (%) ORYSP,"transplanted rice [1]; rice, in vivo, 4 weeks",0%
same,Herbicidal effect (%) SAGPY,Sagittaria pygmaea Miq. [2]; 20 g ai/ha,60%
same,Herbicidal effect (%) MOOVP,[3]; 20 g ai/ha,80%
same,Herbicidal effect (%) CYPSEE,[4]; 20 g ai/ha,20%
same,Herbicidal effect (%) ECHSS,Echinochloa [5]; 20 g ai/ha,50%
same,Herbicidal effect (%) BBBBB,[6]; 20 g ai/ha,60%
same,Herbicidal effect (%) SCPSS,[7]; 20 g ai/ha,90%
same,Phytotoxicity (%) ORYSW*^1,"[8]; rice, in vivo, 4 weeks",10%
same,Phytotoxicity (%) ORYSW*^2,"[9]; RD-23, rice, in vivo, 4 weeks",10%
same,Herbicidal effect (%) ECHCG,Echinochloa cruss-galli; 20 g ai/ha,10%
same,Herbicidal effect (%) CYPDI,Cyperus difformis L.; 20 g ai/ha,100%
same,Herbicidal effect (%) ECHOR,[10]; 20 g ai/ha,15%
same,Herbicidal effect (%) MOOVP,[11]; 20 g ai/ha,95%
same,Herbicidal effect (%) CYPIR,Cyperus iria L.; 20 g ai/ha,100%
same,Herbicidal effect (%) BBBBB,[12]; 20 g ai/ha,90%
same,Herbicidal effect (%) LEFCH,Leptochloa chinensis; 20 g ai/ha,15%
same,Herbicidal effect (%) SAGPY,Sagittaria pygmaea Miq. [13]; 20 g ai/ha,90%
same,Herbicidal effect (%) MOOVP,[14]; 20 g ai/ha,95%
same,Herbicidal effect (%) CYPSEE,[15]; 20 g ai/ha,60%
same,Herbicidal effect (%) ECHSS,Echinochloa [16]; 20 g ai/ha,30%
same,Herbicidal effect (%) BBBBB,[17]; 20 g ai/ha,95%
same,Herbicidal effect (%) SCPSS,[18]; 20 g ai/ha,95%
same,Phytotoxicity (%) ORYSP,"transplanted rice [19]; rice, in vivo, 4 weeks",10%

# From US20080200337A1, “Mixed herbicide compositions for paddy field” (Bayer CropScience, priority 2007, published 2008)
